US5475012A, “N-cyanoamidine derivatives as anti-influenza agents” (priority 1994, dated 1995)
≈ marks a conversion by molar mass, not a printed value.

Columns and labels:
[1] = in vitro; conditions: human, mrc-5 cells
[2] = in vitro; conditions: african green monkey, vero cells
[3] = in vitro; conditions: human, a549 cells
[4] = in vitro; conditions: human, hep-2 cells
[5] = in vitro; conditions: dog, mdck
[6] = test system: FluA/WSN; experiment: Anti-influenza A activity, FluA/WSN (cytopathic effect, crystal violet stain, MDCK cells); format: cell-based, influenza A virus; conditions: for IC50: Influenza A virus, WSN, Table II, tested in MDCK cells, read-out: Median Inhibiting Concentration (IC50), FluA/WSN; for activity against A/WSN (in words): strain specificity
[7] = test system: FluA/LA; experiment: microbe, parasite or virus in culture; format: cell-based, influenza A virus; conditions: for IC50: Influenza A virus, in Gallus gallus, read-out: Median Inhibiting Concentration (IC50), FluA/LA; for activity against A/LA (in words): strain specificity
[8] = test system: FluA/Kaw; experiment: microbe, parasite or virus in culture; format: cell-based, influenza A virus; conditions: for IC50: Influenza A virus, in Gallus gallus, read-out: Median Inhibiting Concentration (IC50), FluA/Kaw; for activity against A/Kaw (in words): strain specificity
[9] = test system: FluB/Yama; experiment: microbe, parasite or virus in culture; format: cell-based, influenza B virus; conditions: for IC50: Influenza B virus, read-out: Median Inhibiting Concentration (IC50), FluB/Yama; for activity against B/Yama (in words): strain specificity

Row | Compound | MCC [1] [µg/mL] | MCC [2] [µg/mL] | MCC [3] [µg/mL] | MCC [4] [µg/mL] | MCC [5] [µg/mL] | IC50 [6] [µg/mL] | activity against A/WSN (in words) [6] | IC50 [7] [µg/mL] | activity against A/LA (in words) [7] | IC50 [8] [µg/mL] | activity against A/Kaw (in words) [8] | IC50 [9] [µg/mL] | activity against B/Yama (in words) [9]
1 | CSC(=NC#N)NCCSCc1cccnc1Nc1ccccc1 [Example 3, N'-cyano-N-[2-[[[2-(phenylamino)-3-pyridinyl]methyl]thio]ethyl]carbamimidothioic acid methyl ester] | > 100 | > 100 | > 100 | > 100 | > 100 |  |  |  |  |  |  |  | 
2 | CC(Cc1ccccc1)(C(=NC#N)NCCc1ccccc1)c1ccccn1 (stereo not drawn) [Example 1, N'-Cyano-α-methyl-N-(2-phenylethyl)-α-(phenylmethyl)-2-pyridineethanimidamide] | > 50 | > 50 | > 50 | > 50 | > 50 | 0.16 to 0.5 (≈ 0.434 to 1.36 µM) | active | > 16 | inactive | 0.5 to 1.6 (≈ 1.36 to 4.34 µM) | active | > 16 | inactive
3 | NC12CC3CC(CC(C3)C1)C2 [Amantadine, reference compound] | > 100 | > 100 | > 100 | > 100 | > 100 | 16 (≈ 106 µM) |  | 0.16 (≈ 1.06 µM) |  | 0.5 to 1.6 (≈ 3.31 to 10.6 µM) |  | > 16 | 
4 | CC(Cc1ccccc1)(C(=NC#N)NCc1ccco1)c1ccccn1 (stereo not drawn) [Example 2, N'-Cyano-N-(2-furanylmethyl)-α-methyl-α-(phenylmethyl)-2-pyridineethanimidamide] | > 50 | > 50 | > 50 | > 50 | > 50 | 0.16 to 0.5 (≈ 0.465 to 1.45 µM) | active | > 16 | inactive | 0.5 to 1.6 (≈ 1.45 to 4.65 µM) | active | > 16 | inactive
5 | NC(=O)c1ncn([C@@H]2O[C@H](CO)[C@@H](O)[C@H]2O)n1 [Ribavirin, reference compound] | > 100 | > 100 | > 100 | > 100 | > 100 | 1.6 to 5 (≈ 6.55 to 20.5 µM) |  | > 16 |  | > 16 |  | 1.6 to 5 (≈ 6.55 to 20.5 µM) | 
